Measured values from PubChem BioAssay (NCI).
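The compound was tested at five concentrations on cells cultured in 96-well plates, with a 48-hour exposure period. GI50: concentration for 50% inhibition of growth. Definition used: TGI = concentration required for complete inhibition of growth.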

Key:
Assay in all cases: NCI-60 cell line screen, 48 h
UACC-257 melanoma = tested on: UACC-257 melanoma
U251 CNS = tested on: U251 CNS
786-0 renal = tested on: 786-0 renal
HS 578T breast = tested on: HS 578T breast
K-562 leukemia = tested on: K-562 leukemia
NCI-H226 lung = tested on: NCI-H226 lung
HL-60(TB) leukemia = tested on: HL-60(TB) leukemia
SK-OV-3 ovarian = tested on: SK-OV-3 ovarian
HOP-62 NSCLC = tested on: HOP-62 NSCLC
COLO 205 colon = tested on: COLO 205 colon
RPMI-8226 leukemia = tested on: RPMI-8226 leukemia
RXF 393 renal = tested on: RXF 393 renal
OVCAR-3 ovarian = tested on: OVCAR-3 ovarian
SF-539 CNS = tested on: SF-539 CNS
UACC-62 melanoma = tested on: UACC-62 melanoma
SNB-19 CNS = tested on: SNB-19 CNS
CCRF-CEM leukemia = tested on: CCRF-CEM leukemia
HCT-15 colon = tested on: HCT-15 colon
LOX IMVI melanoma = tested on: LOX IMVI melanoma
SF-295 CNS = tested on: SF-295 CNS
HT29 colon = tested on: HT29 colon
UO-31 renal = tested on: UO-31 renal
IGROV1 ovarian = tested on: IGROV1 ovarian
M14 melanoma = tested on: M14 melanoma
NCI-H460 lung = tested on: NCI-H460 lung
TK-10 renal = tested on: TK-10 renal
OVCAR-5 ovarian = tested on: OVCAR-5 ovarian
HOP-92 NSCLC = tested on: HOP-92 NSCLC
SK-MEL-2 melanoma = tested on: SK-MEL-2 melanoma
KM12 colon = tested on: KM12 colon
SNB-75 CNS = tested on: SNB-75 CNS
MDA-MB-435 = tested on: MDA-MB-435
ACHN renal = tested on: ACHN renal
NCI/ADR-RES ovarian = tested on: NCI/ADR-RES ovarian
SK-MEL-28 melanoma = tested on: SK-MEL-28 melanoma
SF-268 CNS = tested on: SF-268 CNS
SN12C renal = tested on: SN12C renal
OVCAR-4 ovarian = tested on: OVCAR-4 ovarian
A498 renal = tested on: A498 renal
MOLT-4 leukemia = tested on: MOLT-4 leukemia
A549 NSCLC = tested on: A549 NSCLC
OVCAR-8 ovarian = tested on: OVCAR-8 ovarian
CAKI-1 renal = tested on: CAKI-1 renal
EKVX NSCLC = tested on: EKVX NSCLC
NCI-H522 lung = tested on: NCI-H522 lung
SW-620 colon = tested on: SW-620 colon
MCF7 breast = tested on: MCF7 breast
DU-145 prostate = tested on: DU-145 prostate
T-47D breast = tested on: T-47D breast
MDA-MB-231 breast = tested on: MDA-MB-231 breast
PC-3 prostate = tested on: PC-3 prostate
MALME-3M melanoma = tested on: MALME-3M melanoma
NCI-H23 lung = tested on: NCI-H23 lung
BT-549 breast = tested on: BT-549 breast
HCC-2998 colon = tested on: HCC-2998 colon
HCT-116 colon = tested on: HCT-116 colon

`COc1ccc(-c2nc(S(=O)(=O)c3ccccc3)c(S(=O)CC(=O)N3CCC(C)CC3)o2)cc1` (configuration not stated) showed a GI50 (UACC-257 melanoma) of 2.1 µM, a TGI (UACC-257 melanoma) of 5.05 µM and a GI50 (U251 CNS) of 3.06 µM. It also gave a TGI (U251 CNS) of 10.6 µM, a GI50 (786-0 renal) of 1.92 µM and a TGI (786-0 renal) of 4.05 µM. The GI50 (HS 578T breast) was 5.86 µM, the TGI (HS 578T breast) was 27 µM and the GI50 (K-562 leukemia) was 0.198 µM. For the same compound, the TGI (K-562 leukemia) was 3.03 µM, the GI50 (NCI-H226 lung) was 2.37 µM and the TGI (NCI-H226 lung) was 6.25 µM. It also gave a GI50 (HL-60(TB) leukemia) of 1.61 µM, a TGI (HL-60(TB) leukemia) of 8.35 µM and a GI50 (SK-OV-3 ovarian) of 12.9 µM. It also gave a TGI (SK-OV-3 ovarian) of 26.5 µM, a GI50 (HOP-62 NSCLC) of 8.12 µM and a TGI (HOP-62 NSCLC) of 21 µM. For the same compound, the GI50 (COLO 205 colon) was 2.04 µM, the TGI (COLO 205 colon) was 3.86 µM and the GI50 (RPMI-8226 leukemia) was 1.25 µM. The TGI (RPMI-8226 leukemia) was 4.02 µM, the GI50 (RXF 393 renal) was 1.68 µM and the TGI (RXF 393 renal) was 3.25 µM. For the same compound, the GI50 (OVCAR-3 ovarian) was 1.33 µM, the TGI (OVCAR-3 ovarian) was 2.74 µM and the GI50 (SF-539 CNS) was 1.8 µM. It also gave a TGI (SF-539 CNS) of 3.52 µM, a GI50 (UACC-62 melanoma) of 1.67 µM and a TGI (UACC-62 melanoma) of 3.6 µM. It also gave a GI50 (SNB-19 CNS) of 6.43 µM, a TGI (SNB-19 CNS) of 19.1 µM and a GI50 (CCRF-CEM leukemia) of 2.82 µM. For the same compound, the TGI (CCRF-CEM leukemia) was 8.63 µM, the GI50 (HCT-15 colon) was 1.27 µM and the TGI (HCT-15 colon) was 2.86 µM. The GI50 (LOX IMVI melanoma) was 1.72 µM, the TGI (LOX IMVI melanoma) was 3.25 µM and the GI50 (SF-295 CNS) was 6.44 µM. The TGI (SF-295 CNS) was 19.4 µM, the GI50 (HT29 colon) was 2.58 µM and the TGI (HT29 colon) was 10.1 µM. For the same compound, the GI50 (UO-31 renal) was 1.26 µM, the TGI (UO-31 renal) was 2.57 µM and the GI50 (IGROV1 ovarian) was 2.17 µM. The TGI (IGROV1 ovarian) was 6.27 µM, the GI50 (M14 melanoma) was 1.89 µM and the TGI (M14 melanoma) was 4.21 µM. For the same compound, the GI50 (NCI-H460 lung) was 5.95 µM, the TGI (NCI-H460 lung) was 20.6 µM and the GI50 (TK-10 renal) was 1.91 µM. It also gave a TGI (TK-10 renal) of 3.85 µM, a GI50 (OVCAR-5 ovarian) of 2.99 µM and a TGI (OVCAR-5 ovarian) of 8.58 µM. For the same compound, the GI50 (HOP-92 NSCLC) was 1.62 µM, the TGI (HOP-92 NSCLC) was 3.63 µM and the GI50 (SK-MEL-2 melanoma) was 3.19 µM. It also gave a TGI (SK-MEL-2 melanoma) of 9.83 µM, a GI50 (KM12 colon) of 4.72 µM and a TGI (KM12 colon) of 16.7 µM. It also gave a GI50 (SNB-75 CNS) of 4.16 µM, a TGI (SNB-75 CNS) of 15.2 µM and a GI50 (MDA-MB-435) of 2.55 µM. The TGI (MDA-MB-435) was 6.56 µM, the GI50 (ACHN renal) was 1.68 µM and the TGI (ACHN renal) was 3.13 µM. It also gave a GI50 (NCI/ADR-RES ovarian) of 3.1 µM, a TGI (NCI/ADR-RES ovarian) of 12 µM and a GI50 (SK-MEL-28 melanoma) of 2.15 µM. For the same compound, the TGI (SK-MEL-28 melanoma) was 4.36 µM, the GI50 (SF-268 CNS) was 3.78 µM and the TGI (SF-268 CNS) was 14.9 µM. The GI50 (SN12C renal) was 1.9 µM, the TGI (SN12C renal) was 3.6 µM and the GI50 (OVCAR-4 ovarian) was 3.31 µM. It also gave a TGI (OVCAR-4 ovarian) of 13 µM, a GI50 (A498 renal) of 2.46 µM and a TGI (A498 renal) of 9.79 µM. It also gave a GI50 (MOLT-4 leukemia) of 2.09 µM, a TGI (MOLT-4 leukemia) of 5.71 µM and a GI50 (A549 NSCLC) of 7.59 µM. For the same compound, the TGI (A549 NSCLC) was 21.1 µM, the GI50 (OVCAR-8 ovarian) was 2.44 µM and the TGI (OVCAR-8 ovarian) was 6.59 µM. For the same compound, the GI50 (CAKI-1 renal) was 2.28 µM, the TGI (CAKI-1 renal) was 6.7 µM and the GI50 (EKVX NSCLC) was 3.69 µM. For the same compound, the TGI (EKVX NSCLC) was 13.7 µM, the GI50 (NCI-H522 lung) was 1.44 µM and the TGI (NCI-H522 lung) was 3.39 µM. It also gave a GI50 (SW-620 colon) of 1.73 µM, a TGI (SW-620 colon) of 4.36 µM and a GI50 (MCF7 breast) of 1.45 µM. For the same compound, the TGI (MCF7 breast) was 3.44 µM, the GI50 (DU-145 prostate) was 1.37 µM and the TGI (DU-145 prostate) was 2.72 µM. It also gave a GI50 (T-47D breast) of 1.71 µM, a TGI (T-47D breast) of 4.09 µM and a GI50 (MDA-MB-231 breast) of 1.91 µM. The TGI (MDA-MB-231 breast) was 4.08 µM, the GI50 (PC-3 prostate) was 3.55 µM and the TGI (PC-3 prostate) was 15.7 µM. For the same compound, the GI50 (MALME-3M melanoma) was 1.94 µM, the TGI (MALME-3M melanoma) was 3.67 µM and the GI50 (NCI-H23 lung) was 3.12 µM. For the same compound, the TGI (NCI-H23 lung) was 12.1 µM, the GI50 (BT-549 breast) was 1.73 µM and the TGI (BT-549 breast) was 3.77 µM. It also gave a GI50 (HCC-2998 colon) of 14 µM, a TGI (HCC-2998 colon) of 28.8 µM and a GI50 (HCT-116 colon) of 1.72 µM. The TGI (HCT-116 colon) was 3.2 µM.
